This note sets out measurements from patent US20210222177A1, “THERAPEUTIC AGENT FOR CARTILAGE-RELATED DISEASE” (ONO PHARMACEUTICAL CO., LTD., priority 2018, published 2021).

The test system of this data set is Normal human knee joint chondrocytes. As to the kind of experiment: Evaluation of chondrocyte differentiation promoting action (chondrocyte pellet culture). The class given is cell-based. As to conditions: ASO final concentration 1000 nmol/L with calcium chloride 9 mmol/L, pellet-cultured for 10 days, versus Vehicle group. How it is done:
Normal human knee joint chondrocytes (Lonza Walkersville, Inc.) were thawed and cultured (culture conditions; 5% CO2, 37° C., 95% Air, the same conditions applies hereafter.) in a subculture medium (DMEM/F-12+glutaMAX, included in set of chondrocyte addition factors (Lonza Walkersville, Inc.)). Diluted subculture was performed after subconfluent, and two days after subculture, the culture was treated with antisense oligonucleotides against SIK2 and SIK3 (hereinafter SIK2 ASO; ACAACAACTGCACTTT (SEQ ID NO: 1) and SIK3 ASO; GGTTAGTGCCACGTTG (SEQ ID NO: 6)) in the presence of calcium chloride (9 mmol/L) (final concentration 1000 nmol/L). […] Chondrocyte pellets were imaged using Opera Phenix High Content Screening System (PerkinElmer), and pellet size (area of the pellet image) was calculated using an attached analysis software Harmony. The chondrocyte pellets after imaging were frozen in liquid nitrogen, crushed using AUTOMILL (Tokken, inc.), and then total RNA was extracted using RNeasy Plus Mini Kit (QIAGEN N.V.). cDNA was synthesized from a total RNA solution using High Capacity cDNA Reverse Transcription Kit, and expression level of each gene was measured by real-time polymerase chain reaction (PCR) method using TaqMan Fast Universal PCR Master Mix (2×) (Life Technologies Corporation) and Primer-Probe (COL2A1 assay ID: Hs01060345_m1, COL1A2 assay ID: Hs01028970_m1) of each gene. […]

Take “SIK2 ASO: SIK2 antisense oligonucleotide, ACAACAACTGCACTTT (SEQ ID NO: 1) (listed as DNA, chemistry not given here)”: where the note is “real-time PCR, FIG. 2”, the “cartilage differentiation markers COL2A1/COL1A2” value is “increased”. Moreover, the “chondrocyte pellet size (area of the pellet image)” value (t-test, FIG. 1) is recorded as “significantly increased”.
